“Also recorded” adds a separate entry of the source. Marks after values point to notes of the source that are not given here.
Columns and labels:
[1] = test system: human umbilical vein endothelial cells; experiment: Antiproliferative effects on human umbilical vein endothelial cells; assay type: cell-based
[2] = test system: RAG; experiment: Antiproliferative activity in RCC line RAG; assay type: cell-based; conditions: Mus musculus; murine RCC line RAG
[3] = test system: VEGFR, SRC, Akt and extracellular signal-regulated kinases in vascular endothelial cells; experiment: Phosphorylation of VEGFR, SRC and downstream proteins in vascular endothelial cells; assay type: cell-based
[4] = test system: F317L/T315I orthotopic tumor model; experiment: In vivo efficacy, F317L/T315I orthotopic tumor model; set-up: species or system mouse; conditions: ABL001 60 mg/kg, Ponatinib 20 mg/kg, HQP1351 20 mg/kg
Description: (§1) In vivo efficacy was evaluated using the syngeneic mouse model derived from BaF3 cells with T315I and/or compound mutations. Tumor models were established by intravenously injecting tumor cells (1×10^5/mouse) into the caudal vein under sterile conditions. Mice were randomized into control and treatment groups with 8-10 mice per group and start the treatment from the second day post inoculation. The animal body weights were measured twice a week. The antitumor activity curves of test articles were plotted with the treatment time (day) on the X-axis, and corresponding survival rate on the Y-axis. A Log-rank (Mental-cox) test was employed to analyze the statistical significance of any difference between the treatment group and the control group. Prism version 7 (GraphPad Software Inc., San Diego, CA) was used for all statistical analysis and for graphic presentation.

[5] = test system: E255V/T315I orthotopic tumor model; experiment: In vivo efficacy, E255V/T315I orthotopic tumor model; set-up: species or system mouse; conditions: ABL001 60 mg/kg, Ponatinib 20 mg/kg, HQP1351 20 mg/kg
Description: as §1

[6] = test system: FGFR; experiment: Phosphorylation of FGFR and downstream proteins in cancer cells; assay type: cell-based
[7] = molecular target: VEGFR1 (Homo sapiens, UniProt P17948); experiment: Cell-free kinase assay VEGFR1; assay type: biochemical
[8] = test system: T315I orthotopic tumor model; experiment: In vivo efficacy, T315I orthotopic tumor model; set-up: species or system mouse; conditions: ABL001 60 mg/kg, Ponatinib 20 mg/kg, HQP1351 20 mg/kg
Description: as §1

[9] = test system: Y253H/T315I orthotopic tumor model; experiment: In vivo efficacy, Y253H/T315I orthotopic tumor model; set-up: species or system mouse; conditions: ABL001 60 mg/kg, Ponatinib 20 mg/kg, HQP1351 20 mg/kg
Description: as §1

[10] = molecular target: T1, BCR-ABL single or compound mutations (BaF3 cells) (Homo sapiens, UniProt P00519, cells depend on it, form not given); experiment: Cell based anti-proliferation studies, BaF3 cells with BCR-ABL single or compound mutations (summary); set-up: species or system murine
T1 construct: fused on or other part: P11274 (Breakpoint cluster region protein)
Description: (§2) The anti-proliferative effect was determined by a water-soluble tetrazolium (WST)-based assay using Cell Counting Kit-8 (CCK-8, #D3100L4057, Shanghai life ilab bio technology co., LTD, China). Cells were seeded in 96-well plates and treated with different concentrations of test articles. […] Each treatment was tested in triplicates. The plate was then cultured at 37° C. with 5% CO2 for 72 hours. At the end of treatments, 20 μl/well of CCK-8 reagent was directly added to each wells. The plate was then incubated at 37° C. with 5% CO2 for 2-4 h. The OD value was detected at 450 nm on a microplate reader (SpectraMax I3X, Molecular Devices, US). IC50 values were calculated with Graphpad Prism 7.0 software using nonlinear regression (curve fitting) type data analysis. For combination effect assay, the cells viability was normalized using the mean OD value of triplicated wells for the single agent control.
A series of cell lines expressing BCR-ABL single or compound mutations were constructed based on BaF3 murine pro-B cell line.

[11] = test system: p-SRC and PD-L1 expression in H460 and A549 cells; experiment: Western blot / RT-PCR of p-SRC and PD-L1 expression in NSCLC cell lines; assay type: cell-based, human
Description: Cells were treated with the indicated concentrations and washed twice with cold PBS. Whole cell extracts were collected in RIPA lysis buffer (Santa Cruz Biotechnology, Germany), and protein concentration of the lysates was measured using a BCA Protein Assay Kit (ThermoFisher, USA). The protein samples were electrophoresed through a 10% SDS-PAGE gel and transferred to a polyvinylidene difluoride (PVDF) membrane (Roche, USA). After blocking, membranes were probed with primary antibodies (1:1000) against SRC, p-SRC, PD-L1, GAPDH, 0-tubulin (Cell Signaling Technology, USA) followed by washing and incubation with a secondary antibody (1:5000) conjugated to horseradish peroxidase (Santa Cruz Biotechnology, USA). Protein bands were visualized by applying a chemiluminescent reagent (Pierce ECL kit, Thermo Fisher Scientific, USA) and protein level were quantified by Image Lab (Bio-Rad Laboratory, USA).
Total cellular RNA was extracted by Trizol (Invitrogen, USA) for mRNA analysis. RNA was reverse-transcribed to cDNA profile through using the Transcriptor First Strand cDNA Synthesis kit (Roche Applied Science, USA) and then Real time PCR reactions were performed using the FastStart SYBR Green Master (ROX) reagent (Roche Applied Science, USA) according to the manufacturer's instructions. […]

[12] = molecular target: VEGFR2 (Homo sapiens, UniProt P35968); experiment: Cell-free kinase assay VEGFR2; assay type: biochemical
[13] = test system: RANCA; experiment: Antiproliferative activity in RCC line RANCA; assay type: cell-based; conditions: Mus musculus; murine RCC line RANCA
[14] = test system: PD-L1 in RCC cells; experiment: PD-L1 expression in RCC cells; assay type: cell-based
[15] = test system: RANCA tumor tissues; experiment: Tumor-infiltrating lymphocyte assays in RANCA tumor tissues; assay type: in vivo, mouse
[16] = test system: Ph+ ALL SUP-B15 cells; experiment: Cell viability assay (Cell-Titer Glo) in leukemia cell lines; assay type: cell-based; conditions: 72 hours
Description: After treatment, cell viability was measured by Promega© Cell-Titer Glo®3D Cell Viability Assay luminescence assay kit according to instructions from the manufacturer (Promega, Madison, WI, USA, Cat #G7571). Luminescence signal was detected using a BioTek Synergy H1 Hybrid Multi-Mode (Microplate) Reader (BioTek, Shanghai). Cellular proliferative (i.e. viability) curves were plotted and anti-proliferation IC50 values were calculated using Graphpad Prism version 6.0 software (GraphPad Software, San Diego, CA USA).

[17] = molecular target: VEGFR3 (Homo sapiens, UniProt P35916); experiment: Cell-free kinase assay VEGFR3; assay type: biochemical
[18] = molecular target: BaF3(Bcr-Abl) M244V (Homo sapiens, UniProt P00519, M244V, cells depend on it); conditions: read-out: Anti-proliferation (IC50)
Description: as §2

[19] = molecular target: BaF3(Bcr-Abl) E453K (Homo sapiens, UniProt P00519, E453K, cells depend on it); conditions: read-out: Anti-proliferation (IC50)
Description: as §2

[20] = molecular target: BaF3(Bcr-Abl) Y253H-F359V (Homo sapiens, UniProt P00519, Y253H/F359V, cells depend on it); conditions: read-out: Anti-proliferation (IC50)
Description: as §2

[21] = molecular target: BaF3(Bcr-Abl) T315I-E459K (Homo sapiens, UniProt P00519, T315I/E459K, cells depend on it); conditions: read-out: Anti-proliferation (IC50)
Description: as §2

[22] = molecular target: BaF3(Bcr-Abl) T316I-M244V (Homo sapiens, UniProt P00519, M244V/T315I, cells depend on it); conditions: read-out: Anti-proliferation (IC50)
Description: as §2

[23] = molecular target: BaF3(Bcr-Abl) T315I-Y253H (Homo sapiens, UniProt P00519, Y253H/T315I, cells depend on it); conditions: read-out: Anti-proliferation (IC50)
Description: as §2

## Cc1ccc(C(=O)Nc2ccc(CN3CCN(C)CC3)c(C(F)(F)F)c2)cc1C#Cc1cnc2[nH]ncc2c1 [HQP1351, 3-(2-(1H-pyrazolo[3,4-b]pyridin-5-yl)ethynyl)-4-methyl-N-(4-((4-methylpiperazin-1-yl)methyl)-3-(trifluoromethyl)phenyl)-benzamide]
[1]
  Antiproliferative effects compared to lenvatinib: more potent antiproliferative effects
[2]
  IC50: 53 nM
[3]
  Phosphorylation of VEGFR, SRC, and downstream proteins Akt and extracellular signal-regulated kinases: inhibiting phosphorylation of VEGFR, SRC, and downstream proteins
[4]
  Median survival: 25.0****^$
  Survival prolongation (%): 42.86%
  Survive/Total @ 24: 0/8
[5]
  Median survival: 27.0****
  Survival prolongation (%): 28.57%
  Survive/Total @ D26: 0/10
[6]
  Phosphorylation of FGFR and downstream proteins: inhibiting phosphorylation of FGFR and downstream proteins
[7]
  IC50: 4.2 nM
[8]
  Median survival: 27.0****
  Survival prolongation (%): 28.57%
  Survive/Total @ D43: 0/10
[9]
  Median survival: 18.5
  Survival prolongation (%): 8.82%
  Survive/Total @ 24: 0/8
[10]; BCR-ABL compound mutations
  Anti-proliferative effectiveness against compound mutations compared with other TKIs: more effective than ponatinib, asciminib and other TKIs
[10]; read-out: IC50 values toward BCR-ABL single or compound mutations, range over BaF3 BCR-ABL mutant cell lines
  GI50: 6 to 300 nM
[11]; 2 μM HQP-1351
  PD-L1 and p-SRC levels at different time points: time-dependent suppression of PD-L1 and p-SRC levels
[11]; NSCLC cell lines, 24 h, Western blot
  PD-L1 expression and p-SRC phosphorylation, differing concentrations: decreased PD-L1 expression as well as p-SRC phosphorylation in a concentration-dependent manner
[12]
  IC50: 6.1 nM
[13]
  IC50: 141 nM
[14]
  Expression of PD-L1 in RCC cells: reduced expression of PD-L1
[15]
  Immune cell numbers in RANCA tumor tissues: increased numbers of cytotoxic T cells (CTL, CD8^+) and natural-killer cells
[16]
  Proliferation of Ph+ leukemia cells including SUP-B15: selectively inhibited the proliferation of Ph+ cells; also recorded: potently inhibits the proliferation
[17]
  IC50: 4.1 nM
[18]
  GI50: 41 ± 8 nM
[19]
  GI50: 3 nM
[20]
  GI50: 311 ± 35 nM
[21]
  GI50: 109 ± 4 nM
[22]
  GI50: 76 ± 53 nM
[23]
  GI50: 114 ± 1 nM
